The results in this text go back to patent publication US20230028880A1, “CD38-BINDING AGENTS AND USES THEREOF” (Biohaven Therapeutics Ltd., priority 2019, published 2023).

The test system of assay [1] is Daudi cells. The experiment in a line: Ternary binding assay: recruitment of PE-labeled human IgG1k to Daudi cells (flow cytometry, MFI). It counts as cell-based. As to conditions: for MFI, recruitment of PE-labeled human IgG1k to Daudi cells: duplicate columns. The method, then:
Various technologies can be utilized to assess and/or characterize recruitment of antibodies to target cells, e.g., cancer cells. One such assay is a ternary binding assay. An exemplary protocol is described herein. Compounds were diluted in DMSO (MP 191418) to 1000× the starting concentration used in the assay into a 96 well polypropylene plate (Corning 3357). They were then serially diluted in ½ log increments to generate 8-12 concentrations in DMSO (assay dependent). These DMSO stocks were then step diluted 1/100 into PBS (VWR Cat. #20012043). Step diluted compound range was then added into the polypropylene assay plate 1/10 the volume of the assay volume. Daudi (ATCC CCL-213), a non-adherent cell line, were counted and centrifuged and resuspended at a concentration of 100,000 cells per 90 ul in Flow buffer: 1% BSA (American Bio AB01088-00100); 0.5 mM EDTA (VWR 45001-122); PBS (VWR Cat. #20012043) with 11.1 ug/mL human IgG1k Phycoerythrin labeled (SouthernBiotech #0151K-09 PE). The cells were then added into the polypropylene plate with the step diluted compounds and incubated at 37° C. for 30 min. At the end of the incubation, the cells were centrifuged and washed 2× with How buffer containing 0.5% Tween 20 (BP337-500). Samples were analyzed on a BD FacsCelesta. Mean fluorescence was analyzed using Graphpad Prism and curves were fit using log(inhibitor) vs. response—Variable slope (four parameters).
In general terms: In flow cytometry, cells or beads pass a laser one at a time.

The subject of assay [2] is Daudi cells. Description: KILR ADCC killing assay: KILR-transfected Daudi cells with purified NK cells (% dead cells). In kind it is cell-based. As to conditions: for % dead cells, KILR ADCC killing assay: KILR Daudi cells with purified NK cells, duplicate columns. The text has this: In some embodiments, CD38-ABT ARMs bind to target cells and antibodies, e.g., human antibodies. In some embodiments, such ternary structures present antibodies to effector cells such as NK cell and bind to, e.g., CD16a receptors. […] Daudi cells were transfected with KILR reporter construct (DiscoverX #97-0002). An attenuated lentivirus was designed to deliver a Moloney Murine Leukemia Virus (MMLV) engineered to drive expression of a housekeeping gene tagged with Enhanced ProLabel (ePL) a beta-Galactosidase (beta-gal) reporter fragment. This construct was designed to remain inside cells. Death leads to the release of the KILR reporter protein into the medium. Detection reagent (DiscoverX #97-0001L) contained the complementing beta-gal reporter fragment enzyme acceptor (EA). The two components combined to generate a chemiluminescent signal.

For assay [3], the system named is Effector cells (ADCC reporter cells) with Daudi cells. Description: ADCC reporter assay: Daudi cells, IVIG and ADCC reporter effector cells (luciferase, RLU). The conditions noted are these: IVIG; for EC50: ADCC reporter assay; for Luminescence, ADCC reporter assay: 18 h, duplicate columns. It counts as cell-based. How it is done: Daudi (ATCC CCL-213) cells were resuspended in Opti-MEM (Thermo Fisher Scientific #31985070), counted (Life Technologies Countless II cell counter) and plated (5,000 cells in 25 uL/well; Corning plates: 3917). Compounds w diluted in DMSO (MP 191418) to 1000× the starting concentration used in the assay into a 96 well polypropylene plate (Corning 3357). They were then serially diluted in ½ log increments to generate 8 concentrations in DMSO (assay dependent). These DMSO stocks were then step diluted 1/250 into Opti-MEM. Step diluted compound range was then added into the polypropylene assay plate 25 uL/well. The human antibody solution (Grifols IVIG Fleogogamma #61953-0005-2) was diluted to 40 ug/mL and added 25 uL/well. Effector cells (ADCC reporter cells—Promega kit: G7018) were added 37,500 in 25 uL/well. The assay was then incubated 18 h at 37° C. Following the induction period, the plate was equilibrated to 25° C. followed the addition of the luciferase substrate (75 uL/well, 1 vial in 10 mL of Bio-Glo assay buffer, Promega kit: G7018). The luminescence was measured (Biotek Synergy H1 microplate reader).
For orientation: In a reporter assay the amount or activity of a reporter protein is the signal.

A further assay concerns the target T1, CD38 (human, UniProt P28907 43-300, limits assumed).
T1 construct: also called cluster of differentiation 38; cyclic ADP ribose hydrolase
The experiment in a line: ELISA; larger values represent binding.

Values joined by “and” are separate entries in the source; they are usually repeats but may differ in a detail not shown here. Equal entries are not always repeated. Where no end group is shown, it is not given here. [ ]: non-standard residue; d: D form. Bip = N[C@@H](Cc1ccc(-c2ccccc2)cc1)C(=O)O; Ahp(2) = CCCCC[C@H](N)C(=O)O

In the assay with Daudi cells [1] (ternary binding assay, Daudi cells, human IgG1k PE), “I-38: "A mixture of compound 6 ... compound 2 ... DIEA ... to get compound I-38 (Q1 ...) and compound I-38 (Q2 ...)" (ARXYHDGVLXXDCXXXKXDCAWHLGELVWCT; not fully specified; D-residues; cyclised or stapled)” yielded a half-maximal inhibitory concentration (IC50) of over 3000 nM. The same molecule came in with a concentration giving a half-maximal response (EC50) in the assay on Daudi cells [2] (KILR ADCC killing assay, Daudi cells with purified NK cells) of over 3000 nM. Further, the “% dead cells, KILR ADCC killing assay” value is 10.4% and 10.9% in the assay on Daudi cells [2] (compound 1 nM); 10.2% and 10.7% with Daudi cells [2] (compound 3 nM); 10.6% and 11.6% in the assay on Daudi cells [2] (compound 30 nM); 10.9% with Daudi cells [2] (compound 100 nM); 10.9% and 11.1% in the assay with Daudi cells [2] (compound 300 nM); 11.4% and 11.7% in the assay on Daudi cells [2] (compound 1000 nM). In addition, the “% dead cells, KILR ADCC killing assay” value in the assay on Daudi cells [2] (compound 3000 nM) is 10.3% and 10.8%.

`CCCCC[C@@H]1NC(=O)[C@H](CCCNC(=N)N)NC(=O)[C@H](C)NC(=O)CSC[C@@H](C(=O)NCCCC(=O)N[C@@H](CC(=O)O)C(=O)N[C@H]2CSSC[C@@H](C(=O)N[C@H](C(N)=O)[C@@H](C)O)NC(=O)[C@H](Cc3c[nH]c4ccccc34)NC(=O)[C@H](C(C)C)NC(=O)[C@H](CC(C)C)NC(=O)[C@H](CCC(=O)O)NC(=O)CNC(=O)[C@H](CC(C)C)NC(=O)[C@H](Cc3c[nH]cn3)NC(=O)[C@H](Cc3c[nH]c4ccccc34)NC(=O)[C@H](C)NC2=O)NC(=O)[C@H](CC(=O)O)NC(=O)[C@H](CCCCC)NC(=O)[C@H](Cc2ccc(-c3ccccc3)cc2)NC(=O)[C@H](CC(C)C)NC(=O)[C@H](C(C)C)NC(=O)CNC(=O)[C@H](CC(=O)O)NC(=O)[C@H](Cc2c[nH]cn2)NC(=O)[C@H](Cc2ccc(O)cc2)NC1=O` [I-30]: the EC50 in assay [3] was found to be 12 nM. Further, the “Luminescence, ADCC reporter assay” value is 4174 RLU and 4217 RLU in assay [3] (compound 1 nM); 4269 RLU and 4452 RLU in assay [3] (compound 3 nM); 11442 RLU and 11535 RLU in assay [3] (compound 10 nM); 17189 RLU and 17066 RLU in assay [3] (compound 30 nM); 20600 RLU and 19749 RLU in assay [3] (compound 100 nM); 22074 RLU and 21976 RLU in assay [3] (compound 300 nM). Also, the “Luminescence, ADCC reporter assay” value in assay [3] (compound 1000 nM) is 22085 RLU and 21589 RLU; in assay [3] (compound 3000 nM) it was 19456 RLU and 17760 RLU. Also, the “% dead cells, KILR ADCC killing assay” value in the assay with Daudi cells [2] (compound 1 nM) was 14.3% and 14.7%; in the assay on Daudi cells [2] (compound 3 nM), 14.7% and 15.7%; in the assay with Daudi cells [2] (compound 10 nM), 14.1%; with Daudi cells [2] (compound 100 nM), 17.1% and 18.1%; in the assay with Daudi cells [2] (compound 300 nM), 19% and 20.6%; in the assay with Daudi cells [2] (compound 1000 nM) it was 19.2% and 20%.

Turning to `CCCCC[C@@H]1NC(=O)[C@H](CCCNC(=N)N)NC(=O)[C@H](C)NC(=O)CSC[C@@H](C(=O)NCCOCCOCCC(=O)NCCOCCOCCC(=O)N[C@@H](CC(=O)O)C(=O)N[C@H]2CSSC[C@@H](C(=O)N[C@H](C(=O)O)[C@@H](C)O)NC(=O)[C@H](Cc3c[nH]c4ccccc34)NC(=O)[C@H](C(C)C)NC(=O)[C@H](CC(C)C)NC(=O)[C@H](CCC(=O)O)NC(=O)CNC(=O)[C@H](CC(C)C)NC(=O)[C@H](Cc3c[nH]cn3)NC(=O)[C@H](Cc3c[nH]c4ccccc34)NC(=O)[C@H](C)NC2=O)NC(=O)[C@H](CC(=O)O)NC(=O)[C@H](CCCCC)NC(=O)[C@H](Cc2ccc(-c3ccccc3)cc2)NC(=O)[C@H](CC(C)C)NC(=O)[C@H](C(C)C)NC(=O)CNC(=O)[C@H](CC(=O)O)NC(=O)[C@H](Cc2c[nH]cn2)NC(=O)[C@H](Cc2ccc(O)cc2)NC1=O` [I-34], the “MFI, recruitment of PE-labeled human IgG1k to Daudi cells” value in the assay with Daudi cells [1] (compound 3 nM) is 2094 and 1853; in the assay on Daudi cells [1] (compound 10 nM), 11368 and 6266; in the assay with Daudi cells [1] (compound 30 nM) it was 15113 and 15626; in the assay with Daudi cells [1] (compound 100 nM), 30043 and 19748; with Daudi cells [1] (compound 300 nM) it was 24939 and 24944; in the assay on Daudi cells [1] (compound 1000 nM), 27313 and 25699. The “MFI, recruitment of PE-labeled human IgG1k to Daudi cells” value in the assay with Daudi cells [1] (compound 3000 nM) was 19464 and 23695. Moreover, the 50% effective concentration (EC50) in assay [3] worked out at 6.7 nM. In addition, the “Luminescence, ADCC reporter assay” value was 4355 RLU and 4667 RLU in assay [3] (compound 1 nM); 5459 RLU and 5627 RLU in assay [3] (compound 3 nM); 13353 RLU and 13815 RLU in assay [3] (compound 10 nM); 16833 RLU and 17160 RLU in assay [3] (compound 30 nM); 19999 RLU and 21759 RLU in assay [3] (compound 100 nM); 19948 RLU and 20759 RLU in assay [3] (compound 300 nM). The “Luminescence, ADCC reporter assay” value was 12953 RLU and 13376 RLU in assay [3] (compound 1000 nM); 8601 RLU and 9733 RLU in assay [3] (compound 3000 nM). For the same molecule, the “% dead cells, KILR ADCC killing assay” value was 13.9% and 15.8% in the assay with Daudi cells [2] (compound 1 nM); 13.6% and 13.4% in the assay with Daudi cells [2] (compound 3 nM); 14.9% and 14.5% with Daudi cells [2] (compound 10 nM); 17.8% and 16.4% with Daudi cells [2] (compound 30 nM); 19.7% and 16.9% in the assay with Daudi cells [2] (compound 100 nM); 18.9% and 18.8% in the assay on Daudi cells [2] (compound 300 nM). Also, the “% dead cells, KILR ADCC killing assay” value is 15.3% and 15.9% with Daudi cells [2] (compound 1000 nM); 14.2% and 13.5% in the assay with Daudi cells [2] (compound 3000 nM).

B1: A R Ahp Y H D G V L A Ahp D C (peptide)
peptide: AR[Ahp(2)]YHDGVLA[Ahp(2)]DC
modifications: not fully specified (N-terminus, bridges); printed as A R Ahp Y H D G V L A Ahp D C
notes: Alanine variant at position 10
Turning to B1, in the assay with CD38, the “Binding Assay (ELISA signal)” value came to 0.09.

B2: A R Ahp Y H D G V L Bph Ahp A C (peptide)
peptide: AR[Ahp(2)]YHDGVL[Bip][Ahp(2)]AC
modifications: not fully specified (N-terminus, bridges); printed as A R Ahp Y H D G V L Bph Ahp A C
notes: Alanine variant at position 12
For the molecule B2, the “Binding Assay (ELISA signal)” value with CD38 amounted to 1.79.

B3: A A Ahp Y H D G V L Bph Ahp D C (peptide)
peptide: AA[Ahp(2)]YHDGVL[Bip][Ahp(2)]DC
modifications: not fully specified (N-terminus, bridges); printed as A A Ahp Y H D G V L Bph Ahp D C
As to B3, the “Binding Assay (ELISA signal)” value with CD38 worked out at 0.6.

B4: A R A Y H D G V L Bph Ahp D C (peptide)
peptide: ARAYHDGVL[Bip][Ahp(2)]DC
modifications: not fully specified (N-terminus, bridges); printed as A R A Y H D G V L Bph Ahp D C
notes: Alanine variant at position 3
For B4, in the assay with CD38, the “Binding Assay (ELISA signal)” value was 0.11.

B5: A R Ahp Y H D G V L Bph A D C (peptide)
peptide: AR[Ahp(2)]YHDGVL[Bip]ADC
modifications: not fully specified (N-terminus, bridges); printed as A R Ahp Y H D G V L Bph A D C
notes: Alanine variant at position 11
As for B5, the “Binding Assay (ELISA signal)” value with CD38 was found to be 0.2.

A word on the IC50: it is the concentration that inhibits the measured activity by half. The term EC50 denotes the concentration at which the effect is half-maximal.
